Laboratory results: ChEMBL document CHEMBL2163212, “Antivirals targeting influenza A virus” (J Med Chem, 2012)

Tested on: Influenza A virus
Experiment: Antiviral activity against Influenza A virus assessed as inhibition of cap dependent viral transcription
Type: functional, organism-based

Structure (SMILES) | IC50 [nM]
O=C(O)/C(O)=C/C(=O)C1(Cc2ccc(Cl)cc2)CCN(Cc2ccccc2)CC1 | 1000
O=C(O)/C(O)=C/C(=O)C1(Cc2ccc(Cl)cc2)CCCN(Cc2ccccc2)C1 (configuration not stated) | 1000
